In brackets after ≈: the same amount, converted by molar mass.
Columns and labels:
HIV = experiment: Tests on products against HIV in cell culture (T-cell culture assay, giant cell formation in infected lymphocytes); assay type: cell-based; conditions: Human immunodeficiency virus 1, 72 h, lowest product concentration at which no giant cells occurred, 37° C., 3 days
Protocol: Tests on products against HIV in cell culture
RPMI pH 6.8 Complete medium additionally contains 20% fetal calf serum and 40 IU/ml recombinant interleukin 2.
Lymphocytes isolated from fresh donor blood by means of ®Ficoll gradient centrifugation are cultivated in complete medium with the addition of 2 μg/ml phytohemagglutinin (Wellcome) at 37° C. under 5% CO2 for 36 h. The cells are, after addition of 10% DMSO, frozen at a cell density of 5×10^6 and stored in liquid nitrogen. For the test, the cells are thawed, washed in RPMI medium and cultivated in complete medium for 3-4 days.
The test products were dissolved in DMSO and adjusted with complete medium to a concentration of 1 mg/ml. 0.4 ml of medium was placed in 24-well dishes. After addition of 0.1 ml of the dissolved product to the upper row of the dish, a geometric dilution series was produced by transferring 0.1 ml each time. Product-free controls always received 0.4 ml of complete medium with 0.5% DMSO. Lymphocyte cultures with a cell count of 5×10^5 cells/ml were infected by adding 1/50 of the volume of supernatant from HIV-infected lymphocyte cultures. The titer of these culture supernatants was determined by endpoint dilution to be 1-5×10^6 infectious units/mi. After incubation at 37° C. for 30 min, the infected lymphocytes were spun down and taken up again in the same volume of medium. 0.6 ml portions of this cell suspension were placed in all the wells of the assay plate. The mixtures were incubated at 37° C. for 3 days.
The infected cell cultures were examined under the microscope for the presence of giant cells which indicate active virus replication in the culture. The lowest product concentration at which no giant cells occurred was determined as the HIV inhibitory concentration. As a control, the supernatants from the culture plates were examined for the presence of HIV antigen with the aid of an HIV antigen assay in accordance with the information from the manufacturer (Organon).

[1] = molecular target: T1, HIV reverse transcriptase (Human immunodeficiency virus type 1 group M subtype B, UniProt P04585); experiment: Inhibition of HIV reverse transcriptase (scintillation proximity assay, SPA); assay type: biochemical; conditions: RT-SPA; RT enzyme cloned from HIV in E. coli; 60 min (37° C.)
T1 construct: The RT enzyme (cloned from HIV in E. coli); purchased HT-Biotechnology LTD, Cambridge, UK; host or cells: E. coli
Protocol: Investigation of the substances for inhibition of HIV reverse transcriptase
The reverse transcriptase (RT) activity was determined by means of a scintillation proximity assay (SPA). The reagent kit for the RT-SPA was purchased from Amersham/Buchler (Braunschweig). The RT enzyme (cloned from HIV in E. coli) originated from HT-Biotechnology LTD, Cambridge, UK.
The assay was carried out according to the method manual of the manufacturer Amersham--with the following modifications:
Bovine serum albumin was added to the final concentration of 0.5 mg/ml to the assay buffer.
The assay was carried out in Eppendorf reaction vessels with a volume of 100 μl of mixture.
The RT concentrate from the manufacturer (5000 U/ml) was diluted to an activity of 15 U/ml in tris-HCl buffer 20 mM; pH 7.2; 30% glycerol.
The incubation time for the mixtures was 60 min (37° C.).
After stopping the reaction and "developing" with the bead suspension, 130 μl of mixture were transferred into 4.5 ml of tris-HCl buffer, 10 mM; pH 7.4; 0.15 M NaCl and the tritium activity was measured in a β-counter.
For a preliminary test of the inhibitory activity, the substances were dissolved in DMSO (stock solution c=1 mg/ml) and tested diluted 10^-1, 10^-2, 10^-3 etc. in DMSO.
To determine IC50 values, the inhibitor stock solutions were further diluted in tris-HCl buffer, 50 mM, pH 8 and tested in suitable concentrations.
The concentration appertaining to 50% enzyme inhibition was found from the graph of RT activity against the logarithm of the concentration of the particular test substance.

Question: For `CSCC1C(=S)Nc2cccnc2N1C(=O)OC(C)C` (stereo not drawn) [Example 37, 4-Isopropoxycarbonyl-3-methylthiomethyl-3,4-dihydro-1,4,5-triazanaphthalene-2(1H)-thione], which MIC (HIV) is on record?
Answer: > 1 µg/mL

Question: And the IC50 [1]?
Answer: 0.321 to 3.21 µM

Question: For `C=C(C)OC(=O)N1C(=O)[C@H](C)N(C(=O)OC(=C)C)c2nc(Cl)ccc21` [Example 10, (3S)-6-Chloro-1,4-his(isopropenyloxycarbonyl)-3-methyl-3,4-dihydro-1,4,5-triazanaphthalen-2(1H)-one], which MIC (HIV) is on record?
Answer: 1 µg/mL (≈ 2.73 µM)

Question: What about the IC50 [1] of the same molecule?
Answer: 0.273 to 2.73 µM

Question: With `CC(C)OC(=O)N1c2ncccc2NC(=O)C1CS(C)(=O)=O` (stereo not drawn) [Example 41, 3-Methylsulfonylmethyl-4-isopropoxycarbonyl-3,4-dihydro-1,4,5-triazanaphthalen-2(1H)-one] as the molecule, how does the MIC (HIV) read?
Answer: > 2 µg/mL

Question: How did the MIC (HIV) turn out when `C[C@@H]1Nc2nc(Cl)ccc2NC1=O` [Example 2, (3S)-6-Chloro-3-methyl-3,4-dihydro-1,4,5-triazanaphthalen-2(1H)-one] was run?
Answer: > 0.8 µg/mL

Question: What about the IC50 [1] of the same molecule?
Answer: 5.06 to 50.6 µM

Question: With `C=C(C)OC(=O)N1c2nc(C)ccc2NC(=S)C1C` (racemic) [Example 20, (3RS)-4-(Isopropenyloxycarbonyl)-3,6-dimethyl-3,4-dihydro-1,4,5-triazanaphthalene-2(1H)-thione] as the molecule, how does the IC50 [1] read?
Answer: 3.61 to 36.1 µM

Question: Which results are given for `CC(C)=CCN1c2nc(Cl)ccc2NC(=O)[C@@H]1C` [Example 8, (3S)-6-Chloro-3-methyl-4-(3-methyl-2-butenyl)-3,4-dihydro-1,4,5-triazanaphthalen-2(1H)-one]?
Answer: MIC (HIV): 0.08 µg/mL (≈ 0.301 µM); IC50 [1]: 0.376 to 3.76 µM

Question: Which MIC (HIV) does the source give for `C[C@H]1C(=O)Nc2ccc(Cl)nc2N1Cc1ccccn1` [Example 11, (3S)-6-Chloro-3-methyl-4-(2-picolyl)-3,4-dihydro-1,4,5-triazanaphthalen-2(1H)-one] here?
Answer: 0.2 µg/mL (≈ 0.693 µM)

Question: What about the IC50 [1] of the same molecule?
Answer: 0.346 to 3.46 µM

— patent US5424311A, “Azaquinoxalines and their use” (Hoeschst Aktiengesellschaft, priority 1992, dated 1995)
